# Test results taken from patent US4818770A, “Prevention of a plant disease by specific inhibition of fungal polyamine biosynthesis” (priority 1986, dated 1989).
# Where “and” joins values, the source holds several entries; their conditions need not be identical. Equal entries are not always repeated. Where two headings read alike, the source gives them in different places.
# What was measured:
# [1] = biological target: T1, arginase (Verticillium dahliae, UniProt G2WV09); experiment: Arginase activity in mycelium extracts with DFMA as substrate; type: biochemical; settings: mycelium of 12-day old cultures
# T1 construct: urea release from arginine or DFMA
# T1 sequence (G2WV09 1-327): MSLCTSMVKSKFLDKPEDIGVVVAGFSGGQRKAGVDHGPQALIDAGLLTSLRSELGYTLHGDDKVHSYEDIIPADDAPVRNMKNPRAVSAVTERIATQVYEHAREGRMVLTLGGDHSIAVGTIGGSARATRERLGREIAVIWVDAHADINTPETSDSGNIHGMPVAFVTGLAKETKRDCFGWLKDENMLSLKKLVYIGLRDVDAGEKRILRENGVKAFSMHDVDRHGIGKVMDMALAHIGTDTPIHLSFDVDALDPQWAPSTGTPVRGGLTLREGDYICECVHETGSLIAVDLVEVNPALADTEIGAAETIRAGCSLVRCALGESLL
# Description: Ornithine decarboxylase and ADCase activity determinations were carried out on 12-day-old mycelium of the fungus cultured on liquid Czapek-Dox medium containing 1% glucose as the carbon source.
# Ornithine decarboxylase and ADCase were assayed by the methods of Kaur-Sawhney et al. (4) using D,L-[1-14 C]ornithine and L-[U14 C]arginine as substrates for the respective enzymes. Arginase activity was determined by the methods of Schimke (9), using arginine and DFMA as substrates, and 1-phenyl-1,2-propanedione-2-oxime to detect the urea release by the enzyme. Controls for the arginase determinations were boiled mycelial extracts, and results were adjusted to compensate for readings obtained from substrate blanks. Protein determinations were by the […] method (1), using bovine serum albumin as a reference standard. Difluoromethylornithine and DFMA are products of Merrell-Dow, and are available from them. All other reagents were from Sigma Biochemicals. All experiments were replicated 3 times and repeated twice. Variaions within experiments were generally less than 5%.
# [2] = test system: P. graminis f. sp. tritici; type: in vivo, Puccinia graminis f. sp. tritici
# [3] = test system: P. recondita f. sp. tritici; type: in vivo, Puccinia recondita f. sp. tritici
# [4] = test system: Podosphaera leucotricha; experiment: Infection of apple by powdery mildew; type: in vivo
smiles,measurement,setting,value
"N=C(N)NCCC[C@](N)(C(=O)O)C(F)F [DFMA, alpha-difluoromethylarginine]",arginase activity with DFMA as substrate,[1]; isolate TS-1B,7.1 pM urea/hr/mg protein
same,arginase activity with DFMA as substrate,[1]; isolate TS-2B,11.3 pM urea/hr/mg protein
same,control of wheat stem rust,[2]; 0.01 to 1.0 mM,relatively ineffective
same,% control,"[2]; post-inoculation, 0.01 mM",27%
same,Uredia/plant,"[2]; post-inoculation, 0.01 mM",154 Uredia/plant
same,% control,"[2]; post-inoculation, 0.025 mM",36%
same,Uredia/plant,"[2]; post-inoculation, 0.025 mM",134 Uredia/plant
same,% control,"[2]; post-inoculation, 0.065 mM",29%
same,Uredia/plant,"[2]; post-inoculation, 0.065 mM",150 Uredia/plant
same,% control,"[2]; post-inoculation, 0.10 mM",28%
same,Uredia/plant,"[2]; post-inoculation, 0.10 mM",152 Uredia/plant
same,% control,"[2]; post-inoculation, 0.13 mM",42%
same,Uredia/plant,"[2]; post-inoculation, 0.13 mM",122 Uredia/plant
same,% control,"[2]; post-inoculation, 0.16 mM",42%
same,Uredia/plant,"[2]; post-inoculation, 0.16 mM",122 Uredia/plant
same,% control,"[2]; post-inoculation, 0.20 mM",41%
same,Uredia/plant,"[2]; post-inoculation, 0.20 mM",124 Uredia/plant
same,% control,"[2]; post-inoculation, 1.00 mM",40%
same,Uredia/plant,"[2]; post-inoculation, 1.00 mM",126 Uredia/plant
same,% control,"[2]; pre-inoculation, 0.01 mM",9%
same,Uredia/plant,"[2]; pre-inoculation, 0.01 mM",192 Uredia/plant
same,% control,"[2]; pre-inoculation, 0.025 mM",20%
same,Uredia/plant,"[2]; pre-inoculation, 0.025 mM",167 Uredia/plant
same,% control,"[2]; pre-inoculation, 0.065 mM",20%
same,Uredia/plant,"[2]; pre-inoculation, 0.065 mM",168 Uredia/plant
same,% control,"[2]; pre-inoculation, 0.10 mM",21%
same,Uredia/plant,"[2]; pre-inoculation, 0.10 mM",165 Uredia/plant
same,% control,"[2]; pre-inoculation, 0.13 mM",8%
same,Uredia/plant,"[2]; pre-inoculation, 0.13 mM",193 Uredia/plant
same,% control,"[2]; pre-inoculation, 0.16 mM",11%
same,Uredia/plant,"[2]; pre-inoculation, 0.16 mM",186 Uredia/plant
same,% control,"[2]; pre-inoculation, 0.20 mM",18%
same,Uredia/plant,"[2]; pre-inoculation, 0.20 mM",172 Uredia/plant
same,% control,"[2]; pre-inoculation, 1.00 mM",30%
same,Uredia/plant,"[2]; pre-inoculation, 1.00 mM",148 Uredia/plant
same,Uredia/plant,[3]; 0.01 mM,74 Uredia/plant and 49 Uredia/plant
same,Uredia/plant,[3]; 0.025 mM,62 Uredia/plant and 40 Uredia/plant
same,% control,[3]; 0.065 mM,32% and 54%
same,Uredia/plant,[3]; 0.065 mM,54 Uredia/plant and 37 Uredia/plant
same,% control,[3]; 0.10 mM,37% and 51%
same,Uredia/plant,[3]; 0.10 mM,50 Uredia/plant and 39 Uredia/plant
same,% control,[3]; 0.13 mM,34% and 47%
same,Uredia/plant,[3]; 0.13 mM,53 Uredia/plant and 42 Uredia/plant
same,% control,[3]; 0.16 mM,39% and 49%
same,Uredia/plant,[3]; 0.16 mM,49 Uredia/plant and 41 Uredia/plant
same,% control,[3]; 0.20 mM,46% and 47%
same,Uredia/plant,[3]; 0.20 mM,43 Uredia/plant and 42 Uredia/plant
same,% control,[3]; 1.00 mM,57% and 77%
same,Uredia/plant,[3]; 1.00 mM,34 Uredia/plant and 18 Uredia/plant
same,Percent control,[4]; 1 mM,0.8%
same,Percent control,[4]; 5 mM,28.8%
same,Percent control,[4]; 10 mM,0.0%
same,control of apple powdery mildew,[4]; 1-10 mM applications,essentially ineffective
